Reference: US7189731B2, “Substituted 7-azaquinazoline compounds useful as p38 kinase inhibitors” (Roche Palo Alto LLC, priority 2003, dated 2007)

Columns and labels:
p38 MAP kinase = biological target: T1, p38 MAP kinase (Homo sapiens, UniProt Q16539); assay: Inhibition of p38 (MAP) Kinase-In Vitro Assay; format: biochemical; details: approximate p38 inhibitory activities; concentration causing 50% inhibition of the p38 enzyme; γ-33P-ATP transfer to MBP; read-out: IC50 μM (P38 MAP KINASE E-03)
T1 construct: made in house; host or cells: E. coli (co-expressed with SEK-1 and MEKK)
T1 sequence (Q16539 whole entry): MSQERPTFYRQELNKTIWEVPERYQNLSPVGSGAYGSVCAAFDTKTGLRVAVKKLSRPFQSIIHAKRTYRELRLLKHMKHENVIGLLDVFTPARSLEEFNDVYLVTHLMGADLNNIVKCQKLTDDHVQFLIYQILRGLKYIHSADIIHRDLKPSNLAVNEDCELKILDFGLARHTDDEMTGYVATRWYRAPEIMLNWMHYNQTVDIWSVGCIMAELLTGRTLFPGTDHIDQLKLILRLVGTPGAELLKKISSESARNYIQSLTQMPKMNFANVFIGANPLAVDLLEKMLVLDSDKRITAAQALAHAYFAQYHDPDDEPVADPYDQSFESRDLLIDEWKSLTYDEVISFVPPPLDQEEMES
Experimental: The p-38 MAP kinase inhibitory activity of compounds of this invention in vitro was determined by measuring the transfer of the y-phosphate from γ-^33P-ATP by p38 kinase to Myelin Basic Protein (MBP), using the a minor modification of the method described in Ahn et al., J. Biol. Chem., Vol. 266 (7), 4220–4227 (1991).
The phosphorylated form of the recombinant p38 MAP kinase was expressed with SEK-1 and MEKK in E. Coli (see Khokhlatchev et al., J. Biol. Chem. Vol. 272(17), pp. 11057–11062 (1997)), and then purified by affinity chromatography using a Nickel column.
The phosphorylated p38 MAP kinase was diluted in kinase buffer (20 mM 3-(N-morpholino)propanesulfonic acid, pH 7.2, 25 mM β-glycerol phosphate, 5 mM ethylene glycol-bis(beta-aminoethyl ether)-N,N,N′,N′-tetraacetic acid, 1 mM sodium vanadate, 1 mM dithiothreitol, 40 mM magnesium chloride). Test compound dissolved in DMSO or only DMSO (control) was added, and the samples were incubated for 10 min. at 30° C. The kinase reaction was initiated by the addition of a substrate cocktail containing MBP and γ-^33P-ATP. After incubating for an additional 20 min. at 30° C., the reaction was terminated by adding 0.75% phosphoric acid. The phosphorylated MBP was then separated from the residual γ-^33P-ATP using a phosphocellulose membrane (Millipore, Bedfrod, Mass.) and quantitated using a scintillation counter (Packard, Meriden, Conn.).

| IC50 (p38 MAP kinase) | melting point | SMILES |
| --- | --- | --- |
| < 0.3 µM |  | Fc1ccc(Oc2cc3cnc(NC4CCOCC4)nc3cn2)c(F)c1 [Example 4, [6-(2,4-Difluoro-phenoxy)-pyrido[3,4-d]py-rimidin-2-yl]-(tet-rahydro-pyran-4-yl)-amine] |
| < 0.5 µM |  | CC(C)Nc1ncc2cc(Oc3ccc(F)cc3F)ncc2n1 [Example 2, [6-(2,4-Difluoro-phenoxy)-pyrido[3,4-d]py-rimidin-2-yl]-iso-propyl-amine] |
| < 0.05 µM | 209.9 to 211.9 °C | CS(=O)(=O)N1CCC(Nc2ncc3cc(Oc4ccc(F)cc4F)ncc3n2)CC1 [Example 1, [6-(2,4-Difluoro-phenoxy)-pyrido[3,4-d]pyrimidin-2-yl]-(1-methanesulfonyl-piperidin-4-yl)-amine] |
